Laboratory results taken from patent US10807985B2 (Blueprint Medicines Corporation, priority 2013, dated 2020).

Tests used:
[1] = molecular target: KIT D816V kinase activity (KIT autophosphorylation at tyrosine 719) in HMC1.2 cells (Homo sapiens (Human), UniProt P10721, D816V/V560G); assay: HMC1.2 autophosphorylation assay (phospho-Y719 c-KIT AlphaLISA); format: cell-based; conditions: HMC1.2 mast cell leukemia cell line (KIT V560G, D816V), 90 minutes compound; read-out: INH-KIT-PHOS-HMC1.2
D816V KIT = D816V KIT (Homo sapiens (Human), UniProt P10721, D816V); assay: KIT D816V assay at Km (Caliper electrophoretic mobility shift); conditions: biochemical, 15 uM ATP (Km), 90 minutes at 25 C; read-out: INH KIT D816V
D816V KIT, sequence (P10721 26-976 D816V): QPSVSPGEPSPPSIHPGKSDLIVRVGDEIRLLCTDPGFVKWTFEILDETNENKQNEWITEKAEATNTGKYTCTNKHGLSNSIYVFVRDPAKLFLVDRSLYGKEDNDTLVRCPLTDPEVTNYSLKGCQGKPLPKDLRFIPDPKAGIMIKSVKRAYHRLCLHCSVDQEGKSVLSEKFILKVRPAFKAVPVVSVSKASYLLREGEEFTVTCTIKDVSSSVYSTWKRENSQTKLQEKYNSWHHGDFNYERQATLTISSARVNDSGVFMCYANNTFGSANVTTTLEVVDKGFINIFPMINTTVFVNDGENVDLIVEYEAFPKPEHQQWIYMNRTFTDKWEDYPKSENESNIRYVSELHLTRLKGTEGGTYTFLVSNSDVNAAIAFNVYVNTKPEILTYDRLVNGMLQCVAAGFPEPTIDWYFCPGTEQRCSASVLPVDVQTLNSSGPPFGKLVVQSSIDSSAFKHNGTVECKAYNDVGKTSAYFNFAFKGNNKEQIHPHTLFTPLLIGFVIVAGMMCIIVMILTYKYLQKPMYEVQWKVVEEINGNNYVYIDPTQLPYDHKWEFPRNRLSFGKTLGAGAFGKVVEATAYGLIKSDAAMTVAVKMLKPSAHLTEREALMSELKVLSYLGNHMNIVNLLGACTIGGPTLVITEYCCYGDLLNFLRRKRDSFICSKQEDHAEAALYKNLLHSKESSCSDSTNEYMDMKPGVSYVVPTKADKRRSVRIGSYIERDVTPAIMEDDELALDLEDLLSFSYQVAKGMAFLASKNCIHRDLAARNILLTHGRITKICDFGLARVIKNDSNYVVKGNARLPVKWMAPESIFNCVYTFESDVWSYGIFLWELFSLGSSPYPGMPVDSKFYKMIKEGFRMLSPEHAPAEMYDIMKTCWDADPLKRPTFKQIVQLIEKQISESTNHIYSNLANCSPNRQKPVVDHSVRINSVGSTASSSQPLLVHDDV

KIT D816V kinase activity (KIT autophosphorylation at tyrosine 719) in HMC1.2 cells, sequence (P10721 26-976 V560G/D816V): as the sequence (P10721 26-976 D816V) above, with V535G counted along it

Cc1ccc(-c2cc3c(N4CCN(c5ncc([C@@](C)(O)c6ccc(F)cc6)cn5)CC4)ncnn3c2)cc1 [Compound 59]
IC50 [1]: 100 to 1000 nM
IC50 (D816V KIT): 10 to 100 nM

Cn1cc(-c2cn3ncnc(N4CCN(c5ncc(C(C)(O)c6ccc(F)cc6)cn5)CC4)c3c2Cl)cn1 (stereo in doubt) [Compound 107, (S)-1-(2-(4-(5-chloro-6-(1-methyl-1H-pyrazol-4-yl)pyrrolo[1,2-f][1,2,4]triazin-4-yl)piperazin-1-yl)pyrimidin-5-yl)-1-(4-fluorophenyl)ethanol]
IC50 [1]: 1000 to 10000 nM
IC50 (D816V KIT): > 100 nM

CCn1cc(-c2cc3c(N4CCN(c5ncc([C@@](C)(O)c6ccc(F)cc6)cn5)CC4)ncnn3c2)cn1 [Compound 75]
IC50 [1]: < 50 nM
IC50 (D816V KIT): < 1 nM

Cn1cc(-c2cn3ncnc(N4CCN(c5ncc([C@@](C)(O)c6ccc(F)cc6)cn5)CC4)c3c2F)cn1 [Compound 90]
IC50 [1]: 1000 to 10000 nM
IC50 (D816V KIT): > 100 nM

Cn1cc(-c2cc3c(N4CCN(c5ncc([C@](C)(O)c6ccccc6F)cn5)CC4)ncnn3c2)cn1 [Compound 48]
IC50 [1]: < 50 nM
IC50 (D816V KIT): 1.01 to 10 nM

Cn1cc(-c2cn3ncnc(N4CCN(c5ncc([C@](C)(O)c6ccc(F)cc6)cn5)CC4)c3c2F)cn1 [Compound 89]
IC50 [1]: 1000 to 10000 nM
IC50 (D816V KIT): > 100 nM

C[C@@H](c1ccc(F)cc1)c1cnc(N2CCN(c3ncnn4cc(-c5cnn(C)c5)cc34)C[C@H]2CO)nc1 [Compound 73]
IC50 [1]: < 50 nM
IC50 (D816V KIT): 1.01 to 10 nM

Cn1cc(-c2cc3c(N4CCN(c5ncc([C@@H](O)c6ccc(F)cc6)cn5)CC4)ncnn3c2)cn1 [Compound 31]
IC50 [1]: < 50 nM
IC50 (D816V KIT): 1.01 to 10 nM

Cn1cc(-c2cc3c(N4CCN(c5ncc([C@@](C)(O)c6ccc(F)cc6Cl)cn5)CC4)ncnn3c2)cn1 [Compound 110]
IC50 [1]: < 50 nM
IC50 (D816V KIT): 1.01 to 10 nM

Cc1nn(C)cc1-c1cc2c(N3CCN(c4ncc([C@@](C)(O)c5ccc(F)cc5)cn4)CC3)ncnn2c1 (single isomer, unassigned) [Compound 72]
IC50 [1]: < 50 nM
IC50 (D816V KIT): < 1 nM

Cn1cc(-c2cc3c(N4CCN(c5ncc([C@@](O)(CF)c6ccc(F)cc6)cn5)CC4)ncnn3c2)cn1 [Compound 95]
IC50 [1]: 50 to 100 nM
IC50 (D816V KIT): < 1 nM

Cn1cc(-c2cc3c(N4CCN(c5ncc([C@@](C)(O)c6ccccc6)cn5)CC4)ncnn3c2)cn1 [Compound 25]
IC50 [1]: < 50 nM
IC50 (D816V KIT): < 1 nM

Cn1cc(-c2cc3c(N4CCN(c5ncc([C@@](C)(O)c6ccc(F)cn6)cn5)CC4)ncnn3c2)cn1 [Compound 54]
IC50 [1]: 100 to 1000 nM
IC50 (D816V KIT): 1.01 to 10 nM

Cn1cc(-c2cc3c(N4CCN(c5ncc([C@](O)(c6ccc(F)cc6)C(F)F)cn5)CC4)ncnn3c2)cn1 [Compound 118]
IC50 [1]: 100 to 1000 nM
IC50 (D816V KIT): 1.01 to 10 nM

COc1ccc(-c2cc3c(N4CCN(c5ccccc5)CC4)ncnn3c2)cc1 [Compound 2]
IC50 [1]: > 10000 nM
IC50 (D816V KIT): > 100 nM

Cn1cc(-c2cc3c(N4CCN(c5ncc([C@@](O)(c6ccc(F)cc6)C6CC6)cn5)CC4)ncnn3c2)cn1 [Compound 104]
IC50 [1]: 100 to 1000 nM
IC50 (D816V KIT): 1.01 to 10 nM

Cn1cc(-c2cc3c(N4CCN(c5ncc(Oc6ccc(F)cc6)cn5)CC4)ncnn3c2)cn1 [Compound 15]
IC50 [1]: 100 to 1000 nM
IC50 (D816V KIT): 10 to 100 nM

Cn1cc(-c2cc3c(N4CCN(c5ncc(C6(c7ccc(F)cc7)COC6)cn5)CC4)ncnn3c2)cn1 [Compound 61]
IC50 [1]: 100 to 1000 nM
IC50 (D816V KIT): 1.01 to 10 nM

Cc1cc(-c2cc3c(N4CCN(c5ncc([C@](C)(O)c6ccc(F)cc6)cn5)CC4)ncnn3c2)no1 (single isomer, unassigned) [Compound 51]
IC50 (D816V KIT): 10 to 100 nM

Cc1cc(F)ccc1[C@](C)(O)c1cnc(N2CCN(c3ncnn4cc(-c5cnn(C)c5)cc34)CC2)nc1 [Compound 80]
IC50 (D816V KIT): 10 to 100 nM

Cn1cc(-c2cc3c(N4CCN(c5ccccc5)CC4)ncnn3c2)cn1 [Compound 1]
IC50 (D816V KIT): > 100 nM

Cn1cc(-c2cc3c(N4CCN(c5ncc([C@](N)(c6ccc(F)cc6)C(F)F)cn5)CC4)ncnn3c2)cn1 [Compound 112]
IC50 [1]: 100 to 1000 nM
IC50 (D816V KIT): 1.01 to 10 nM

COc1cccc(-c2cc3c(N4CCN(c5ncc([C@@](C)(O)c6ccc(F)cc6)cn5)CC4)ncnn3c2)c1 [Compound 101]
IC50 [1]: 50 to 100 nM
IC50 (D816V KIT): 10 to 100 nM

Cn1cc(-c2cc3c(N4CCN(c5ncc([C@](C)(O)c6c(F)cccc6F)cn5)CC4)ncnn3c2)cn1 [Compound 91]
IC50 [1]: 50 to 100 nM
IC50 (D816V KIT): < 1 nM

Cc1c(-c2cc3c(N4CCN(c5ncc(Cc6ccccc6)cn5)[C@H](C)C4)ncnn3c2)cnn1C [Compound 19]
IC50 [1]: 100 to 1000 nM
IC50 (D816V KIT): 1.01 to 10 nM

C[C@](O)(c1ccc(F)cc1)c1cnc(N2CCN(c3ncnn4cc(-c5cccc(F)c5)cc34)CC2)nc1 [Compound 66]
IC50 [1]: 100 to 1000 nM
IC50 (D816V KIT): 1.01 to 10 nM

N#Cc1ccc(-c2cc3c(N4CCN(c5ncc(Cc6ccccc6)cn5)CC4)ncnn3c2)cc1 [Compound 16]
IC50 [1]: 100 to 1000 nM
IC50 (D816V KIT): 1.01 to 10 nM

Cn1cc(-c2cn3ncnc(N4CCN(c5ncc([C@@](C)(O)c6ccc(F)cc6)cn5)CC4)c3c2Cl)cn1 [Compound 108]
IC50 [1]: 1000 to 10000 nM
IC50 (D816V KIT): > 100 nM

CN(C)[C@H](c1ccccc1)c1cnc(N2CCN(c3ncnn4cc(-c5cnn(C)c5)cc34)CC2)nc1 [Compound 37]
IC50 [1]: 1000 to 10000 nM
IC50 (D816V KIT): 10 to 100 nM

Cn1cc(-c2cc3c(N4CCN(c5ncc([C@H](N)c6ccc(F)cc6)cn5)CC4)ncnn3c2)cn1 [Compound 28]
IC50 [1]: < 50 nM
IC50 (D816V KIT): 1.01 to 10 nM

Cn1cc(-c2cc3c(N4CCN(c5ncc(S(=O)(=O)c6ccc(F)cc6)cn5)CC4)ncnn3c2)cn1 [Compound 99]
IC50 [1]: 1000 to 10000 nM
IC50 (D816V KIT): 10 to 100 nM

C[C@@H]1CN(c2ncnn3cc(-c4cnn(C)c4)cc23)CCN1c1ncc(Cc2ccccc2)cn1 [Compound 8]
IC50 [1]: 100 to 1000 nM
IC50 (D816V KIT): 1.01 to 10 nM

Cc1ccc(-c2cc3c(N4CCN(c5ncc([C@@](C)(O)c6ccc(F)cc6)cn5)CC4)ncnn3c2)cn1 [Compound 60]
IC50 [1]: < 50 nM
IC50 (D816V KIT): 1.01 to 10 nM

CC[C@H](c1ccc(F)cc1)c1cnc(N2CCN(c3ncnn4cc(-c5cnn(C)c5)cc34)CC2)nc1 (single isomer, unassigned) [Compound 40]
IC50 [1]: 100 to 1000 nM
IC50 (D816V KIT): 1.01 to 10 nM

Cn1cc(-c2cc3c(N4CCN(c5ncc([C@@](C)(O)c6ccccc6F)cn5)CC4)ncnn3c2)cn1 [Compound 47]
IC50 [1]: < 50 nM
IC50 (D816V KIT): < 1 nM

CN(C)C(=O)c1ccc(-c2cc3c(N4CCN(c5ccccc5)CC4)ncnn3c2)cc1 [Compound 6]
IC50 [1]: > 10000 nM
IC50 (D816V KIT): > 100 nM

C[C@H](c1ccc(F)cc1)c1cnc(N2CCN(c3ncnn4cc(-c5cnn(C)c5)cc34)C[C@H]2CO)nc1 [Compound 74]
IC50 [1]: 50 to 100 nM
IC50 (D816V KIT): 1.01 to 10 nM

C=C(c1ccc(F)cc1)c1cnc(N2CCN(c3ncnn4cc(-c5cnn(C)c5)cc34)CC2)nc1 [Compound 23]
IC50 [1]: 100 to 1000 nM
IC50 (D816V KIT): 10 to 100 nM

CCn1cc(-c2cc3c(N4CCN(c5ncc([C@@](C)(N)c6ccc(F)cc6)cn5)CC4)ncnn3c2)cn1 [Compound 63]
IC50 [1]: < 50 nM
IC50 (D816V KIT): < 1 nM

Cn1cc(-c2cc3c(N4CCN(c5ncc([C@@](C)(N)c6ccc(F)cc6F)cn5)CC4)ncnn3c2)cn1 [Compound 85]
IC50 [1]: < 50 nM
IC50 (D816V KIT): < 1 nM

Cn1cc(-c2cc3c(N4CCN(c5ncc([C@H](N)c6ccccc6)cn5)CC4)ncnn3c2)cn1 [Compound 13, (R)-(2-(4-(6-(1-methyl-1H-pyrazol-4-yl)pyrrolo[2,1-f][1,2,4]triazin-4-yl)piperazin-1-yl)pyrimidin-5-yl)(phenyl)methanamine]
IC50 [1]: 100 to 1000 nM
IC50 (D816V KIT): 1.01 to 10 nM

CO[C@@](C)(c1ccc(F)cc1)c1cnc(N2CCN(c3ncnn4cc(-c5cnn(C)c5)cc34)CC2)nc1 [Compound 67]
IC50 [1]: 100 to 1000 nM
IC50 (D816V KIT): 10 to 100 nM

Cc1cc(-c2cc3c(N4CCN(c5ncc([C@@](C)(O)c6ccc(F)cc6)cn5)CC4)ncnn3c2)no1 (single isomer, unassigned) [Compound 52]
IC50 [1]: 100 to 1000 nM
IC50 (D816V KIT): 1.01 to 10 nM

Cn1cc(-c2cc3c(N4CCN(c5ccc(C(O)c6ccccc6)cn5)CC4)ncnn3c2)cn1 (stereo not shown) [Compound 11]
IC50 [1]: 100 to 1000 nM
IC50 (D816V KIT): 1.01 to 10 nM

Cc1ncc(-c2cc3c(N4CCN(c5ncc([C@@](C)(O)c6ccc(F)cc6)cn5)CC4)ncnn3c2)s1 [Compound 88]
IC50 [1]: < 50 nM
IC50 (D816V KIT): < 1 nM

Cn1cc(-c2cc3c(N4CCN(c5ncc([C@H](CO)c6ccc(F)cc6)cn5)CC4)ncnn3c2)cn1 [Compound 50]
IC50 [1]: < 50 nM
IC50 (D816V KIT): 1.01 to 10 nM

Cn1cc(-c2cc3c(N4CCN(c5ncc([C@](C)(N)c6c(F)cc(F)cc6F)cn5)CC4)ncnn3c2)cn1 [Compound 113]
IC50 [1]: < 50 nM
IC50 (D816V KIT): < 1 nM

Cn1cc(-c2cc3c(N4CCN(c5ncc([C@H](O)c6ccc(F)cc6)cn5)CC4)ncnn3c2)cn1 [Compound 32]
IC50 [1]: < 50 nM
IC50 (D816V KIT): 1.01 to 10 nM

c1ccc(Cc2cnc(N3CCN(c4ncnn5cc(-c6cnn(C[C@@H]7CNCCO7)c6)cc45)CC3)nc2)cc1 [Compound 120]
IC50 [1]: 50 to 100 nM
IC50 (D816V KIT): < 1 nM

CC[C@](O)(c1ccc(F)cc1)c1cnc(N2CCN(c3ncnn4cc(-c5cnn(C)c5)cc34)CC2)nc1 [Compound 69]
IC50 [1]: 100 to 1000 nM
IC50 (D816V KIT): 1.01 to 10 nM

Cn1cc(-c2cc3c(N4CCN(c5ncc([C@](C)(O)c6ccc(F)cn6)cn5)CC4)ncnn3c2)cn1 [Compound 53]
IC50 [1]: 1000 to 10000 nM
IC50 (D816V KIT): 10 to 100 nM

Cn1cc(-c2cc3c(N4CCN(c5ncc([C@@H](N)c6ccc(F)cc6)cn5)CC4)ncnn3c2)cn1 [Compound 27]
IC50 [1]: < 50 nM
IC50 (D816V KIT): 1.01 to 10 nM

C[C@@](O)(c1ccc(F)cc1)c1cnc(N2CCN(c3ncnn4cc(-c5ccc(F)cc5)cc34)CC2)nc1 [Compound 64]
IC50 [1]: 100 to 1000 nM
IC50 (D816V KIT): 10 to 100 nM

Cn1cc(-c2cc3c(N4CCN(c5ncc([C@](O)(c6ccc(F)cc6)C6CC6)cn5)CC4)ncnn3c2)cn1 [Compound 103]
IC50 [1]: 100 to 1000 nM
IC50 (D816V KIT): 1.01 to 10 nM

C[C@](N)(c1ccccc1)c1cnc(N2CCN(c3ncnn4cc(-c5cn[nH]c5)cc34)CC2)nc1 (single isomer, unassigned) [Compound 12]
IC50 [1]: < 50 nM
